≈ marks a conversion by molar mass, not a printed value.
Key:
MT4 = assay: In vitro antiviral activity against HIV-1 in MT-4 Cell; type: functional; details: Homo sapiens; for EC50: read-out: ED50 (the source's name); for IC50: read-out: ID50 (the source's name)
[1] = Therapeutic index (TI) was determined by dividing the ID50 by the ED50; type: cell-based; details: human, MT4 cells; read-out: TI

Structure (SMILES) | EC50 (MT4) [µg/mL] | IC50 (MT4) [µg/mL] | selectivity ratio [1]
Nc1nc(O)c2ncn(C3C=CC(CO)C3CO)c2n1 (stereo not given) | > 100 | > 100 | –
Nc1ccn([C@H]2CC[C@@H](CO)O2)c(=O)n1 [ZALCITABINE] | 0.011 (≈ 0.0521 µM) | 27 (≈ 128 µM) | 2450

— ChEMBL document CHEMBL1126245, “Synthesis and anti-HIV activity of 9-[c-4,t-5-bis(hydroxymethyl)cyclopent-2-en-r-1-yl]-9H-adenine” (J Med Chem, 1992)
